From PMC7803792 (Slas Discovery, 2021)
Entries after “also recorded” stand apart in the source; their conditions may differ.

What was measured:
[1] = target: T1, SARS-CoV-2 nsp10-nsp16 complex (Severe acute respiratory syndrome coronavirus 2, UniProt P0DTD1); settings: FP, 30 nM FAM-RNA, maximum FP signal
[2] = target: SARS-CoV nsp10-nsp16 complex; settings: cited from earlier work
[3] = target: T1, SARS-CoV-2 nsp10-nsp16 complex; experiment: Isothermal titration calorimetry; assay type: binding
[4] = target: T1, SARS-CoV-2 nsp10-nsp16 complex; experiment: FP-based RNA displacement assay; assay type: binding; settings: concentration for 50% displacement of 30 nM FAM-RNA from 0.5 µM nsp10-nsp16 complex

Compound	Kdisp (K displacement) [4]	also measured
5′ N7-meGpppACCCCC-FAM 3′		Bmax [1]: 270 ± 5 mP
C[S+](CC[C@H](N)C(=O)[O-])C[C@H]1O[C@@H](n2cnc3c(N)ncnc32)[C@H](O)[C@@H]1O (stereo partly drawn) [SAM, S-adenosyl-L-methionine]		Kd [2]: 5.59 ± 1.15 µM; Kd [3]: 3.4 ± 1.5 µM
Cn1c[n+]([C@@H]2O[C@H](COP(=O)(O)OP(=O)(O)OP(=O)(O)OC[C@H]3O[C@@H](n4cnc5c(=O)[nH]c(N)nc54)[C@H](O)[C@@H]3O)[C@@H](O)[C@H]2O)c2nc(N)[nH]c(=O)c21 [N7-meGpppG, m7G(5′)ppp(5′G]	17 ± 3 µM	
Nc1nc2c(ncn2[C@@H]2O[C@H](COP(=O)(O)OP(=O)(O)OP(=O)(O)OC[C@H]3O[C@@H](n4cnc5c(=O)[nH]c(N)nc54)[C@H](O)[C@@H]3O)[C@@H](O)[C@H]2O)c(=O)[nH]1 [GpppG, G(5′)ppp(5′)G]	unable to displace; also recorded: did not disrupt; also recorded: no RNA displacement	
Nc1nc2c(ncn2[C@@H]2O[C@H](COP(=O)(O)OP(=O)(O)OP(=O)(O)OC[C@H]3O[C@@H](n4cnc5c(N)ncnc54)[C@H](O)[C@@H]3O)[C@@H](O)[C@H]2O)c(=O)[nH]1 [GpppA, G(5′)ppp(5′)A]	unable to displace; also recorded: did not disrupt; also recorded: no RNA displacement	
Cn1c[n+]([C@@H]2O[C@H](COP(=O)(O)OP(=O)(O)OP(=O)(O)OC[C@H]3O[C@@H](n4cnc5c(N)ncnc54)[C@H](O)[C@@H]3O)[C@@H](O)[C@H]2O)c2nc(N)[nH]c(=O)c21 [N7-meGpppA, m7G(5′)ppp(5′)A]	20 ± 6 µM	
